Experimental data reported in US8404708B2, “Dual NK1/NK3 receptor antagonists” (Hoffmann-La Roche Inc., priority 2004, dated 2013).

Columns and labels:
human NK1 receptor = human NK1 receptor (Homo sapiens, UniProt P25103); test: NK1 receptor binding, [3H]substance P displacement, CHO cell membranes; details: first value of the cell NK1/NK3; read-out: pKi NK1 (converted)
[1] = biological target: T1, Recombinant human NK3 (hNK3) receptor (Homo sapiens, UniProt P29371); test: NK3 receptor binding, [3H]SR142801 displacement, membrane preparations; details: second value of the cell NK1/NK3; read-out: pKi NK3 (converted)
T1 construct: expressed in transfected cells
T1 sequence (P29371 1-465): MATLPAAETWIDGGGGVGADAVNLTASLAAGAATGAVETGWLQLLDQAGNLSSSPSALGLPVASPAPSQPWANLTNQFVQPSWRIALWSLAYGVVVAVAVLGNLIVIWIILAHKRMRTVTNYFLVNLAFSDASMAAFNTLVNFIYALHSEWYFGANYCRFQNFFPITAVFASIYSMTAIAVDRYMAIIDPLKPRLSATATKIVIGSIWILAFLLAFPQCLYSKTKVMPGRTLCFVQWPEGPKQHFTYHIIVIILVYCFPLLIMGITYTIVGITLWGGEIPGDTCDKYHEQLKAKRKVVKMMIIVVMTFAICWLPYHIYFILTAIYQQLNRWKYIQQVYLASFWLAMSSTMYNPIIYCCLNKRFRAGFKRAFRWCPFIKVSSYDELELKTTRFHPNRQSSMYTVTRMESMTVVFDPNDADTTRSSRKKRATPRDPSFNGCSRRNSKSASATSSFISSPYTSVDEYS
Outline: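 Incubation ran 90 min at room temperature in 50 mM Tris-HCl pH 7.4 with 0.1% BSA, 4 mM MnCl2 and 1 μM phosphoramidon, using about 2.5 μg hNK3 membrane protein per well. Nonspecific binding was defined with 10 μM SB222200, and bound radioactivity was collected on PEI-soaked GF/C filters for scintillation counting.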

Chain of human NK1 receptor (P25103 whole entry): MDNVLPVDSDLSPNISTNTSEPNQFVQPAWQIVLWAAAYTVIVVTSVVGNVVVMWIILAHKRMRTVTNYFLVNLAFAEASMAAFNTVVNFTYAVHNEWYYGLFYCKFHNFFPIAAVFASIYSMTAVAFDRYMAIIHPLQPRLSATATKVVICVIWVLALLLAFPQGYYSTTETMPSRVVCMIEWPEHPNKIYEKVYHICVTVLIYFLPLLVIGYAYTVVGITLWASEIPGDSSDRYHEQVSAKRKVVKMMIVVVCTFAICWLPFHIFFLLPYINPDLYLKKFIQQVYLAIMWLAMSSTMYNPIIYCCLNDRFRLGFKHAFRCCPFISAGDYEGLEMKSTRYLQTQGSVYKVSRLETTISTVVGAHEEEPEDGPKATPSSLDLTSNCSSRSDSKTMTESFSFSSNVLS

Structure (SMILES)	Ki (human NK1 receptor) [nM]	Ki [1] [nM]
Cc1c(F)cccc1-c1cc(N2C[C@H](O)C[C@H]2CO)ncc1N(C)C(=O)C(C)(C)c1cc(C(F)(F)F)cc(C(F)(F)F)c1 [Example 228, (2S,4R)-2-(3,5-Bis-trifluoromethyl-phenyl)-N-[4-(3-fluoro-2-methyl-phenyl)-6-(4-hydroxy-2-hydroxymethyl-pyrrolidin-1-yl)-pyridin-3-yl]-N-methyl-isobutyramide]	1.17	1.41
CN(C(=O)C(C)(C)c1cc(C(F)(F)F)cc(C(F)(F)F)c1)c1cnc(N2C[C@H](O)C[C@H]2CO)cc1-c1cccc(Cl)c1Cl [Example 229, (2S,4R)-2-(3,5-Bis-trifluoromethyl-phenyl)-N-[4-(2,3-dichloro-phenyl)-6-(4-hydroxy-2-hydroxymethyl-pyrrolidin-1-yl)-pyridin-3-yl]-N-methyl-isobutyramide]	2.95	1.86
Cc1noc(C)c1-c1cc(N2C[C@H](O)C[C@H]2CO)ncc1N(C)C(=O)C(C)(C)c1cc(C(F)(F)F)cc(C(F)(F)F)c1 [Example 230, (2S,4R)-2-(3,5-Bis-trifluoromethyl-phenyl)-N-[4-(3,5-dimethyl-isoxazol-4-yl)-6-(4-hydroxy-2-hydroxymethyl-pyrrolidin-1-yl)-pyridin-3-yl]-N-methyl-isobutyramide]	0.741	2.69
COc1ccc(-c2cc(N3C[C@H](O)C[C@H]3CO)ncc2N(C)C(=O)C(C)(C)c2cc(C(F)(F)F)cc(C(F)(F)F)c2)c(OC)n1 [Example 231, (2S,4R)-2-(3,5-Bis-trifluoromethyl-phenyl)-N-[6′-(4-hydroxy-2-hydroxymethyl-pyrrolidin-1-yl)-2,6-dimethoxy-[3,4′]bipyridinyl-3′-yl]-N-methyl-isobutyramide]	2.45	14.1
CN(C(=O)C(C)(C)c1cc(C(F)(F)F)cc(C(F)(F)F)c1)c1cnc(N2C[C@H](O)C[C@H]2CO)cc1-c1cccnc1Cl [Example 232, (2S,4R)-2-(3,5-Bis-trifluoromethyl-phenyl)-N-[2-chloro-6′-(4-hydroxy-2-hydroxymethyl-pyrrolidin-1-yl)-[3,4′]bipyridinyl-3′-yl]-N-methyl-isobutyramide]	0.575	1.35
Cc1ncccc1-c1cc(N2C[C@H](O)C[C@H]2CO)ncc1N(C)C(=O)C(C)(C)c1cc(C(F)(F)F)cc(C(F)(F)F)c1 [Example 233, (2S,4R)-2-(3,5-Bis-trifluoromethyl-phenyl)-N-[6′-(4-hydroxy-2-hydroxymethyl-pyrrolidin-1-yl)-2-methyl-[3,4′]bipyridinyl-3′-yl]-N-methyl-isobutyramide]	0.427	3.89
CN(C(=O)C(C)(C)c1cc(C(F)(F)F)cc(C(F)(F)F)c1)c1cnc(N2C[C@H](O)C[C@H]2CO)cc1-c1ncccc1Cl [Example 234, (2S,4R)-2-(3,5-Bis-trifluoromethyl-phenyl)-N-[3-chloro-6′-(4-hydroxy-2-hydroxymethyl-pyrrolidin-1-yl)-[2,4′]bipyridinyl-3′-yl]-N-methyl-isobutyramide]	2.19	11
CN(C(=O)C(C)(C)c1cc(C(F)(F)F)cc(C(F)(F)F)c1)c1cnc(N2C[C@@H](O)C[C@H]2CO)cc1-c1ccc(F)cc1Cl [Example 235, (2S,4S)-2-(3,5-Bis-trifluoromethyl-phenyl)-N-[4-(2-chloro-4-fluoro-phenyl)-6-(4-hydroxy-2-hydroxymethyl-pyrrolidin-1-yl)-pyridin-3-yl]-N-methyl-isobutyramide]	1.66	1.26
CN(C(=O)C(C)(C)c1cc(C(F)(F)F)cc(C(F)(F)F)c1)c1cnc(N2C[C@@H](O)C[C@H]2CO)cc1-c1ccc(Cl)cc1Cl [Example 236, (2S,4S)-2-(3,5-Bis-trifluoromethyl-phenyl)-N-[4-(2,4-dichloro-phenyl)-6-(4-hydroxy-2-hydroxymethyl-pyrrolidin-1-yl)-pyridin-3-yl]-N-methyl-isobutyramide]	1.78	1.78
CN(C(=O)C(C)(C)c1cc(C(F)(F)F)cc(C(F)(F)F)c1)c1cnc(N2C[C@@H](O)C[C@H]2CO)cc1-c1ccc(F)cc1F [Example 237, (2S,4S)-2-(3,5-Bis-trifluoromethyl-phenyl)-N-[4-(2,4-difluoro-phenyl)-6-(4-hydroxy-2-hydroxymethyl-pyrrolidin-1-yl)-pyridin-3-yl]-N-methyl-isobutyramide]	1.02	7.76
Cc1cc(F)ccc1-c1cc(N2C[C@@H](O)C[C@H]2CO)ncc1N(C)C(=O)C(C)(C)c1cc(C(F)(F)F)cc(C(F)(F)F)c1 [Example 238, (2S,4S)-2-(3,5-Bis-trifluoromethyl-phenyl)-N-[4-(4-fluoro-2-methyl-phenyl)-6-(4-hydroxy-2-hydroxymethyl-pyrrolidin-1-yl)-pyridin-3-yl]-N-methyl-isobutyramide]	1.23	1.02
CN(C(=O)C(C)(C)c1cc(C(F)(F)F)cc(C(F)(F)F)c1)c1cnc(N2C[C@@H](O)C[C@H]2CO)cc1-c1ccc(F)cc1C=O [Example 239, (2S,4S)-2-(3,5-Bis-trifluoromethyl-phenyl)-N-[4-(4-fluoro-2-formyl-phenyl)-6-(4-hydroxy-2-hydroxymethyl-pyrrolidin-1-yl)-pyridin-3-yl]-N-methyl-isobutyramide]	1.62	1.48
CN(C(=O)C(C)(C)c1cc(C(F)(F)F)cc(C(F)(F)F)c1)c1cnc(N2C[C@@H](O)C[C@H]2CO)cc1-c1ccc(F)cc1CO [Example 240, (2S,4S)-2-(3,5-Bis-trifluoromethyl-phenyl)-N-[4-(4-fluoro-2-hydroxymethyl-phenyl)-6-(4-hydroxy-2-hydroxymethyl-pyrrolidin-1-yl)-pyridin-3-yl]-N-methyl-isobutyramide]	0.794	3.02
Cc1ccccc1-c1cc(N2C[C@@H](O)C[C@H]2CO)ncc1N(C)C(=O)C(C)(C)c1cc(C(F)(F)F)cc(C(F)(F)F)c1 [Example 241, (2S,4S)-2-(3,5-Bis-trifluoromethyl-phenyl)-N-[6-(4-hydroxy-2-hydroxymethyl-pyrrolidin-1-yl)-4-o-tolyl-pyridin-3-yl]-N-methyl-isobutyramide]	1.45	1.62
CN(C(=O)C(C)(C)c1cc(C(F)(F)F)cc(C(F)(F)F)c1)c1cnc(N2C[C@@H](O)C[C@H]2CO)cc1-c1ccccc1F [Example 242, (2S,4S)-2-(3,5-Bis-trifluoromethyl-phenyl)-N-[4-(2-fluoro-phenyl)-6-(4-hydroxy-2-hydroxymethyl-pyrrolidin-1-yl)-pyridin-3-yl]-N-methyl-isobutyramide]	1.32	6.92
CN(C(=O)C(C)(C)c1cc(C(F)(F)F)cc(C(F)(F)F)c1)c1cnc(N2C[C@@H](O)C[C@H]2CO)cc1-c1ccccc1C(F)(F)F [Example 243, (2S,4S)-2-(3,5-Bis-trifluoromethyl-phenyl)-N-[6-(4-hydroxy-2-hydroxymethyl-pyrrolidin-1-yl)-4-(2-trifluoromethyl-phenyl)-pyridin-3-yl]-N-methyl-isobutyramide]	3.89	4.68
COc1ccccc1-c1cc(N2C[C@@H](O)C[C@H]2CO)ncc1N(C)C(=O)C(C)(C)c1cc(C(F)(F)F)cc(C(F)(F)F)c1 [Example 244, (2S,4S)-2-(3,5-Bis-trifluoromethyl-phenyl)-N-[6-(4-hydroxy-2-hydroxymethyl-pyrrolidin-1-yl)-4-(2-methoxy-phenyl)-pyridin-3-yl]-N-methyl-isobutyramide]	1	7.08
CN(C(=O)C(C)(C)c1cc(C(F)(F)F)cc(C(F)(F)F)c1)c1cnc(N2C[C@@H](O)C[C@H]2CO)cc1-c1ccccc1C#N [Example 245, (2S,4S)-2-(3,5-Bis-trifluoromethyl-phenyl)-N-[4-(2-cyano-phenyl)-6-(4-hydroxy-2-hydroxymethyl-pyrrolidin-1-yl)-pyridin-3-yl]-N-methyl-isobutyramide]	1.2	1.1
CN(C(=O)C(C)(C)c1cc(C(F)(F)F)cc(C(F)(F)F)c1)c1cnc(N2C[C@@H](O)C[C@H]2CO)cc1-c1ccccc1Br [Example 246, (2S,4S)-2-(3,5-Bis-trifluoromethyl-phenyl)-N-[4-(2-bromo-phenyl)-6-(4-hydroxy-2-hydroxymethyl-pyrrolidin-1-yl)-pyridin-3-yl]-N-methyl-isobutyramide]	1.91	1.48
CN(C(=O)C(C)(C)c1cc(C(F)(F)F)cc(C(F)(F)F)c1)c1cnc(N2C[C@@H](O)C[C@H]2CO)cc1-c1ccccc1 [Example 247, (2S,4S)-2-(3,5-Bis-trifluoromethyl-phenyl)-N-[6-(4-hydroxy-2-hydroxymethyl-pyrrolidin-1-yl)-4-phenyl-pyridin-3-yl]-N-methyl-isobutyramide]	1.51	15.8
Cc1cc(-c2cc(N3C[C@@H](O)C[C@H]3CO)ncc2N(C)C(=O)C(C)(C)c2cc(C(F)(F)F)cc(C(F)(F)F)c2)ccc1F [Example 248, (2S,4S)-2-(3,5-Bis-trifluoromethyl-phenyl)-N-[4-(4-fluoro-3-methyl-phenyl)-6-(4-hydroxy-2-hydroxymethyl-pyrrolidin-1-yl)-pyridin-3-yl]-N-methyl-isobutyramide]	2.19	27.5
